Measured values reported in ChEMBL document CHEMBL4371063, “Identification of 2-(2'-fluoro-[1,1'-biphenyl]-2-yl)acetamide as a Sodium Valproate-like broad spectrum anti-epileptic drug candidate” (Bioorg Med Chem Lett, 2019).
Activity calls are given as the source filed them.

Tests used:
Mus musculus [1] = experiment: Anticonvulsant activity in maximal electroshock induced seizure mouse model assessed as reduction in convulsions at 100 mg/kg, po; assay type: functional, organism-based
Mus musculus [2] = experiment: Anticonvulsant activity in maximal electroshock induced seizure mouse model assessed as reduction in convulsions at 50 mg/kg, po; assay type: functional, organism-based
Mus musculus [3] = experiment: Anticonvulsant activity in maximal electroshock induced seizure mouse model assessed as reduction in convulsions at 25 mg/kg, po; assay type: functional, organism-based
Mus musculus [4] = experiment: Anticonvulsant activity in subcutaneous pentylenetetrazole-induced seizure mouse model assessed as reduction in convulsions at 25 mg/kg, po; assay type: functional, organism-based
Mus musculus [5] = experiment: Anticonvulsant activity in subcutaneous pentylenetetrazole-induced seizure mouse model assessed as reduction in convulsions at 100 mg/kg, po; assay type: functional, organism-based
[6] = Neurotoxicity in po dosed mouse by rotarod test; assay type: toxicity, organism-based; settings: in vivo
Rattus norvegicus [7] = experiment: Anticonvulsant activity in amygdala kindling rat model assessed as change in after discharge duration at 600 mg/kg, po (reference value: -5.5%); assay type: functional
Mus musculus [8] = experiment: Anticonvulsant activity in po dosed maximal electroshock induced seizure mouse model assessed as reduction in convulsions; assay type: functional
Mus musculus [9] = experiment: Anticonvulsant activity in po dosed subcutaneous pentylenetetrazole-induced seizure mouse model assessed as reduction in convulsions; assay type: functional
Mus musculus [10] = experiment: Anticonvulsant activity in po dosed 6-Hz induced seizure mouse model; assay type: functional
Rattus norvegicus [11] = experiment: Anticonvulsant activity in amygdala kindling rat model assessed as change in after discharge threshold at 300 mg/kg, po relative to control; assay type: functional
Rattus norvegicus [12] = experiment: Anticonvulsant activity in amygdala kindling rat model assessed as change in after discharge threshold at 600 mg/kg, po relative to control; assay type: functional
Rattus norvegicus [13] = experiment: Anticonvulsant activity in amygdala kindling rat model assessed as change in after discharge duration at 300 mg/kg, po (reference value: -5.5%); assay type: functional
Mus musculus [14] = experiment: Anticonvulsant activity in subcutaneous pentylenetetrazole-induced seizure mouse model assessed as reduction in convulsions at 50 mg/kg, po; assay type: functional, organism-based
[15] = Stability in human hepatic microsomes assessed as parent compound remaining after 30 mins in presence of NADPH; assay type: ADME, Microsome; settings: liver microsomes, read-out: Stability
[16] = Therapeutic index, ratio of TD50 for neurotoxicity in po dosed mouse to ED50 for po dosed 6-Hz induced seizure mouse model; assay type: toxicity, organism-based; settings: in vivo, read-out: Ratio TD50/ED50
[17] = molecular target: T1, GABA-A receptor; anion channel (Homo sapiens) (UniProt P14867+P47870+P18507+P28472+P48169+Q99928+Q9UN88+P34903+O00591+O14764+Q8N1C3+P18505+P78334+P47869+P31644+Q16445); experiment: Displacement of [3H]Ro15-1788 from GABAA receptor (unknown origin) at 30 uM; assay type: protein-complex assay
Rattus norvegicus [18] = experiment: Anticonvulsant activity in amygdala kindling rat model assessed as change in after discharge threshold at 100 mg/kg, po relative to control; assay type: functional
[19] = molecular target: T2, GABA-A receptor; anion channel (Rattus norvegicus) (UniProt O09028+P15431+P18506+P18508+P19969+P20236+P23574+P23576+P28471+P28473+P30191+P62813+P63079+P63138+Q91ZM7+Q9ES14); experiment: Displacement of […] from GABAA receptor in Sprague-Dawley rat cerebral cortex at 30 uM by scintillation counting method
Rattus norvegicus [20] = experiment: Anticonvulsant activity in amygdala kindling rat model assessed as change in after discharge threshold at 50 mg/kg, po relative to control; assay type: functional
[21] = molecular target: T1, GABA-A receptor; anion channel (Homo sapiens); experiment: Displacement of [3H]TBOB from GABAA receptor (unknown origin) at 30 uM; assay type: protein-complex assay
[22] = Stability in rat hepatic microsomes assessed as parent compound remaining after 30 mins in presence of NADPH; assay type: ADME, Microsome; settings: liver microsomes, read-out: Stability
[23] = molecular target: T2, GABA-A receptor; anion channel (Rattus norvegicus); experiment: Displacement of [3H]flunitrazepam from GABAA receptor in Sprague-Dawley rat cerebral cortex at 30 uM after 60 mins by scintillation counting method
[24] = molecular target: T1, GABA-A receptor; anion channel (Homo sapiens); experiment: Displacement of [3H]muscimol from GABAA receptor (unknown origin) at 30 uM; assay type: protein-complex assay
Rattus norvegicus [25] = experiment: Anticonvulsant activity in amygdala kindling rat model assessed as change in after discharge duration at 100 mg/kg, po (reference value: -5.5%); assay type: functional
[26] = Therapeutic index, ratio of TD50 for neurotoxicity in po dosed mouse to ED50 for po dosed maximal electroshock induced seizure mouse model; assay type: toxicity, organism-based; settings: in vivo, read-out: Ratio TD50/ED50
Rattus norvegicus [27] = experiment: Anticonvulsant activity in amygdala kindling rat model assessed as change in after discharge duration at 50 mg/kg, po (reference value: -5.5%); assay type: functional

| SMILES | Activity (Mus musculus [1]) | Activity (Mus musculus [2]) | Activity (Mus musculus [5]) | also measured |
| --- | --- | --- | --- | --- |
| NC(=O)Cc1ccc(F)cc1-c1ccccc1F | Active | Active |  | Activity (Mus musculus [3]): inactive |
| NC(=O)Cc1cccc(F)c1-c1ccccc1F | Active | Active |  | Activity (Mus musculus [4]): inactive |
| NC(=O)c1ccccc1-c1ccccc1F | Active | Active |  | Activity (Mus musculus [3]): Active |
| NC(=O)Cc1ccccc1-c1cc(F)ccc1F | Active | Active | Active | Activity (Mus musculus [4]): inactive; Activity (Mus musculus [3]): inactive |
| NC(=O)Cc1ccccc1-c1c(F)cccc1F | Active | Active | Active | Activity (Mus musculus [4]): inactive; Activity (Mus musculus [3]): Active |
| CCCC(CCC)C(=O)[O-].[Na+] [VALPROATE SODIUM] |  |  |  | TD50 [6]: 396 mg/kg; Activity (Rattus norvegicus [7]): -22.5%; ED50 (Mus musculus [8]): 309 mg/kg; ED50 (Mus musculus [9]): 336 mg/kg; ED50 (Mus musculus [10]): 343 mg/kg; Activity (Rattus norvegicus [11]): -5.4%; Activity (Rattus norvegicus [12]): 81.3%; Activity (Rattus norvegicus [13]): 11.1% |
| O=C1NC(=O)C(c2ccccc2-c2ccccc2F)N1 (centres undefined) | Active |  | inactive |  |
| NC(=O)Cc1ccccc1-c1ccccc1C(F)(F)F | Active | inactive |  | Activity (Mus musculus [14]): inactive |
| NC(=O)Cc1cnccc1-c1ccccc1F | inactive |  | inactive |  |
| NC(=O)Cc1cccnc1-c1ccccc1F | inactive |  |  |  |
| N#Cc1ccccc1-c1ccccc1CC(N)=O |  |  | inactive |  |
| NC(=O)Cc1ccccc1-c1ccccc1F | Active | Active |  | TD50 [6]: 129 mg/kg; remaining at 0.5 h [15]: > 95%; selectivity ratio [16]: 2.3; inhibition [17]: inactive; Activity (Rattus norvegicus [18]): 80.1%; ED50 (Mus musculus [8]): 27 mg/kg; inhibition [19]: inactive; Activity (Rattus norvegicus [20]): 75.9%; inhibition [21]: inactive; remaining at 0.5 h [22]: > 95%; inhibition [23]: inactive; ED50 (Mus musculus [9]): 27 mg/kg; ED50 (Mus musculus [10]): 56 mg/kg; inhibition [24]: inactive; Activity (Rattus norvegicus [25]): -22.9%; selectivity ratio [26]: 4.8; Activity (Rattus norvegicus [27]): -22.9% |
| CNS(=O)(=O)c1ccccc1-c1ccccc1F | Active | Active | Active | Activity (Mus musculus [14]): Active; Activity (Mus musculus [3]): Active |
| NC(=O)Cc1ccccc1-c1ccncc1F | inactive |  |  |  |
| NC(=O)Cc1ncccc1-c1ccccc1F | Active |  |  |  |
| COc1ccccc1-c1ccccc1CC(N)=O |  | inactive |  |  |
| O=C(O)Cc1ccccc1-c1ccccc1F | inactive |  | inactive |  |
| NC(=O)Cc1ccccc1-c1ccc(F)cc1F | Active |  |  |  |
| O=C1CCCN1c1ccccc1-c1ccccc1F | Active |  | inactive |  |
| NC(=O)Cc1c(F)cccc1-c1ccccc1F | Active | Active |  |  |
| NC(=O)Cc1cc(F)ccc1-c1ccccc1F | Active |  | Active | Activity (Mus musculus [4]): inactive; Activity (Mus musculus [3]): inactive |
| NC(=O)Cc1ccccc1-c1ccccc1Cl | Active | Active | Active | Activity (Mus musculus [4]): inactive; Activity (Mus musculus [14]): Active |
